# US8519061B2, “Controlled release remediation system and composition” (North Carolina A&T State University, priority 2008, dated 2013)
# Test system: E. coli
# Assay: E. coli colony counts, Membrane Filter Count Method, Country Park Lake water
# Type: cell-based, Escherichia coli
# Protocol: These pellets were used to evaluate the removal of Escherichia coli (commonly E. coli) from publicly accessible water. […] Recreational use of the publicly accessible water in this area is restricted due to high E. coli concentrations that can lead to illness.
# Water samples including control water samples and publicly accessible water samples (from Country Park Lake) at concentrations of 1 ml, 0.1 ml, 0.01 ml, and 0.001 ml were prepared for evaluation.
# The water samples were filtered through 5 μm filters and bacteria was cultured in petri dishes with m-Endo broth (e.g., commercially available form BD Diagnostic Systems Sparks, Md.) for 24-hours at 35° C. If E. coli was present in the filtered water sample, metallic purple/red E. coli colonies would grow on the filter in the petri dish. For this analysis, the larger the water sample filtered, the higher the concentration of E. coli which would grow within the 24-hour window. To analyze the amount of E. coli on the filter, the goal was to determine the appropriate water dilution amount to obtain filters where the number of colonies could be counted. If the filter was covered with E. coli, the petri dish was classified as “To numerous to count”. When an acceptable number of countable colonies was obtained, the number of colonies/100 ml was calculated for the water sample.
compound,measurement,value
"O=S(=O)([O-])OO.[K+] [Oxone ® compound, potassium hydrogen peroxymonosulfate sulfate (5:3:2:2)]","E. coli Colony Counts, 0.1 ml dilution plates",No colonies
same,"E. coli Colony Counts, 1 ml dilution plates",No colonies
same,"E. coli Colony Counts, Average 24 hours # colonies/100 ml",No colonies
same,Removal of E. coli from treated water,complete removal
